Results taken from patent US20240024403A1, “Compositions and Methods for Managing Weight” (Unigen, Inc., priority 2012, published 2024).
Like-named read-outs stand apart in the source and are kept apart here. Each block holds one molecule with its values, some of them ahead of it.

Columns and labels:
[1] = molecular target: T1, human CB1 receptor (Homo sapiens (Human), UniProt P21554); assay: CB1 receptor binding assay ([3H] SR141716A); settings: for inhibition at 20 µg/mL: read-out: % Inhibition CB1-Binding; for CB1 selectivity over CB2: from CB1 and CB2 IC50
T1 sequence (P21554 whole entry): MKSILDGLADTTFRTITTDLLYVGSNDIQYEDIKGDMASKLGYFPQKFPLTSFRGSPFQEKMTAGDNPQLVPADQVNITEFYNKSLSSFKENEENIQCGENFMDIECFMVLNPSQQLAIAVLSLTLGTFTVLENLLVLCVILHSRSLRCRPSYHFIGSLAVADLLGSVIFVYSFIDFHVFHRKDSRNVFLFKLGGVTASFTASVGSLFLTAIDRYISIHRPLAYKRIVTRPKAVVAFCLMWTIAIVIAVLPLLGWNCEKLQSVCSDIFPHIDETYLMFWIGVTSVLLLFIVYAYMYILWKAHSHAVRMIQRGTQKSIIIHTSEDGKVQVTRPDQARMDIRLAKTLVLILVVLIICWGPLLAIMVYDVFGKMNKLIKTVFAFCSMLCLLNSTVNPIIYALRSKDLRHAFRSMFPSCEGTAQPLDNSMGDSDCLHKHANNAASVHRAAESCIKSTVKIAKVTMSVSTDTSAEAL
Procedure: Cannabinoid receptor binding assays were used as a primary screening method to identify CB1 antagonist compounds. […] Briefly, human cannabinoid receptor protein bound to Chem-1 membrane was used in modified HEPES (pH 7.4) buffer. A 10 microgram (μg) aliquot of Chem-1 membrane, radioactively labeled [^3H] […] After incubation, the membranes were filtered and washed four times and then the filters were counted to determine amount of [^3H]

[2] = molecular target: human cannabinoid CB2 receptor protein (Homo sapiens (Human), UniProt P34972); assay: CB2 receptor-ligand binding assay ([3H] WIN-55,212-2)
human cannabinoid CB2 receptor protein, sequence (P34972 whole entry): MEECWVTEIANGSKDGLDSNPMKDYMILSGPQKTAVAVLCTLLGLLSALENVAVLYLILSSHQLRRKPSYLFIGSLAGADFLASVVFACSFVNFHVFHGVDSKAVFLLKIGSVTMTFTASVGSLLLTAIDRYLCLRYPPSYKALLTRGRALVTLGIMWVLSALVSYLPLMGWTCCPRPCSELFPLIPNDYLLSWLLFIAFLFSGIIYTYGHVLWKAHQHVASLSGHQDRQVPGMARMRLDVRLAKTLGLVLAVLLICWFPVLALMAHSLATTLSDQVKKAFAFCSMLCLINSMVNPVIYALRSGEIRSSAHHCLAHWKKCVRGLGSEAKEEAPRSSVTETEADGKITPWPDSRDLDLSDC
Procedure: Briefly, human cannabinoid CB2 receptor protein expressed in CHO-K1 cells were used in modified HEPES buffer (pH 7.0). A 30 μg aliquot of CB2-membrane was mixed with tritium labeled nonspecific CB1 agonist [3H] WIN-55,212-2 (2.4 nM) and test samples of Kuwanon G and Albanin G compounds, or just the nonspecific ligand R (+)-WIN-55,212-2 (10 μM) (positive control) were incubated in incubation buffer (20 mM HEPES (pH 7.0), 0.5 mg/ml BSA) for 90 minutes at 37° C. After incubation, the membranes were filtered and washed; the filters were then counted to determine the amount of radiolabeled [^3H] WIN-55,212-2 that was specifically bound to the CB2-membrane.

[3] = test system: Rice α-glucosidase; assay: Rice α-Glucosidase inhibition assay; type: biochemical; settings: 100 μg/ml
Procedure: Inhibition of rice α-glucosidase activity by each of the purified Kuwanon G and Albanin G compounds was measured as follows. […] The reaction was initiated with addition of 2 mM p-nitrophenyl a-D-glucopyanoside, incubated for another 90 minute at 70° C., and then terminated by adding of 1 M sodium carbonate. The end-product p-nitrophenol was measured by spectrophotometer.

[4] = molecular target: T1, human CB1 receptor; assay: CB1 Antagonist Effect GPCR Functional Assay (cAMP); type: cell-based; settings: for inhibition at 100 µM: read-out: CB1 Antagonist Inhibition
Procedure: (§1) In vitro efficacy and CB1 binding specificity of compounds isolated from Morus alba and Milicia excelsa were tested in the human CB1 receptor binding assay, and the agonist or antagonist function of the compounds was determined by measuring the effect on cAMP or agonist-induced cAMP modulation.
(§2) Following 10 min incubation at 37° C., the cells are lysed and the fluorescence acceptor (D2-labeled cAMP) and fluorescence donor (anti-cAMP antibody labeled with europium cryptate) are added. After 60 min at room temperature, the fluorescence transfer is measured at λex=337 nm and λem=620 nm and 665 nm using a microplate reader (Rubystar, BMG). The cAMP concentration is determined by dividing the signal measured at 665 nm by that measured at 620 nm (ratio).

[5] = DPPH anti-oxidation test
Procedure: The DPPH radical has a violet color in solution, but changes to light yellow or colorless when reduced to DPPH-H (2,2-diphenyl-1-picrylhydrazin) after reaction with free radicals. The color change can be followed spectrophotometrically at 517 nm to determine the anti-oxidative potential of a composition. Briefly, a 0.2 mM solution of DPPH in DMSO was mixed with each test sample at concentrations of 20, 40, 80 and 160 μg/ml. Ascorbic acid was used as a positive control. After a 30 minute incubation in the dark, the color change (i.e., decrease in absorbance) was measured at 517 nm in a spectrophotometer.

[6] = test system: 3T3-L1 adipocytes; assay: Lipolysis (free glycerol released) in mature 3T3-L1 adipocytes; type: cell-based, Mouse; settings: 10 μM
Procedure: Isoproterenol (10 μM) was used as a positive control. The conditioned medium was recovered and free glycerol released was assayed by using a lipolysis assay kit (Sigma-Aldrich Inc., USA) following the manufacturer's instructions.

[7] = molecular target: T1, human CB1 receptor; assay: CB1 Agonist Effect GPCR Functional Assay (cAMP); type: cell-based
Procedure: as §1
as §2, with “Following a” for “Following”, “10 minute” for “10 min”, “cryptate) were” for “cryptate) are”

[8] = test system: 3T3-L1 adipocytes; assay: Lipid accumulation in 3T3-L1 adipocytes (Oil-Red O); type: cell-based, Mouse; settings: 10 ng/ml
Procedure: Briefly, 3T3 L1cells (American Type Culture Collection) were cultured in Dulbecco's modified Eagle's medium (DMEM) (GIBCO) containing 10% bovine calf serum until confluent. Two days post-confluence (DO), cells were stimulated to differentiate with DMEM containing 10% fetal bovine serum (FBS), 5 μg/ml insulin, 0.5 mM 3-isobutyl-1-methylxanthine (IBMX) and 1 μM dexamethasone for two days (D2).
Differentiated cells were then maintained in 10% FBS/DMEM medium with 5 μg/ml insulin for another two days (D4), followed by culturing with 10% FBS/DMEM medium for four days (D8).
To examine lipid accumulation, four different concentrations of Composition 3 (40, 80, 120 and 160 ug/ml) were tested with medium from Days 0 to 8 of adipogenesis. The culture medium was replaced every two days, and the cells were stained with Oil-Red O on Day 8.

[9] = test system: 3T3-L1 cells; assay: Intracellular triglyceride accumulation in differentiating 3T3-L1 cells; type: cell-based, Mouse; settings: 10 ng/ml; 8 days differentiation
Procedure: The cells were washed with PBS, scraped with homogenizing solution, residual cell lysate was centrifuged at 3,000 g for 5 minutes to remove fat layers, and the supernatants were assayed for triglyceride levels.

- IC50 [1]: 0.1 µM
- inhibition at 20 µg/mL ([1]; 20 μg/ml): 96%
- CB1 selectivity over CB2 [1]: CB1 selective inhibitors
- IC50 [2]: 6.6 µM
- % Inhibition Rice α-glucosidase [3]: 66%
- CB1 receptor functional behavior (antagonist) [4]: modest antagonist-like activity
- inhibition at 100 µM ([4]; at 100 μM): 17%
Molecule: CC(C)=CCc1c(O)ccc(C(=O)C2C(c3c(O)cc(O)c4c(=O)c(CC=C(C)C)c(-c5ccc(O)cc5O)oc34)C=C(C)CC2c2ccc(O)cc2O)c1O (centres unmarked) [Albanin G]

Molecule: O=C1O[C@H]([C@@H](O)CO)C(O)=C1O [Ascorbic acid]
- DPPH Inhibition (%) ([5]; 20 μg/ml): 50.8 ± 0.83%
- DPPH Inhibition (%) ([5]; 40 μg/ml): 53.6 ± 1.72%
- DPPH Inhibition (%) ([5]; 80 μg/ml): 64.2 ± 0.86%
- DPPH Inhibition (%) ([5]; 160 μg/ml): 76.6 ± 0.30%

Molecule: CC(C)NCC(O)c1ccc(O)c(O)c1 (centres unmarked) [Isoproterenol]
- Lipolysis, % of Control ([6]; 24 hrs): 464.2 % of Control
- Lipolysis, % of Control ([6]; 48 hrs): 525.0 % of Control

Molecule: CC(C)=CCc1c(-c2ccc(O)cc2O)oc2c(C3C=C(C)CC(c4ccc(O)cc4O)C3C(=O)c3ccc(O)cc3O)c(O)cc(O)c2c1=O (centres unmarked) [Kuwanon G]
- IC50 [1]: 10.1 µM
- % Inhibition CB1-Binding ([1]; 20 μg/ml): 92%
- CB1 selectivity over CB2 [1]: CB1 selective inhibitors
- IC50 [2]: 28.9 µM
- % Inhibition Rice α-glucosidase [3]: −22%
- CB1 receptor functional behavior (agonist) [7]: agonist-like behavior instead of antagonist
- EC50 [7]: 85 µM
- CB1 Antagonist Inhibition ([4]; at 100 μM): −1%

Molecule: CC(C)=CCC12Oc3c(c(O)cc(O)c3C3C=C(C)CC(c4ccc(O)cc4O)C3C(=O)c3ccc(O)cc3O)C(=O)C1(O)Oc1cc(O)ccc12 (centres unmarked) [Sanggenon, Sanggenon C/D/]
- IC50 [1]: 3.5 µM
- CB1 selectivity over CB2 [1]: CB1 selectivity over the CB2 receptor protein
- inhibition at 20 µg/mL [1]: 96%
- IC50 [2]: 24 µM
- CB1 receptor functional behavior (agonist) [7]: agonist-like behavior instead of antagonist
- EC50 [7]: 31 µM
- inhibition at 100 µM [4]: -14%

Molecule: TNF-α
- Inhibition (%) of lipid accumulation ([8]; Table 159, Oil-Red O Day 8): 61.0%
- Inhibition (%) of lipid accumulation ([8]; Table 160): 68.9%
- Inhibition (%) of lipid accumulation ([8]; Table 161): 74.1 ± 6.06%
- Inhibition (%) of intracellular triglyceride accumulation [9]: 19.4%
